Assay results taken from ChEMBL document CHEMBL1201862, “PubChem BioAssay data set” (2004).
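Step 1: Grow cells in 96-well plates. Step 2: Expose to compound for 48 hours at 5 concentrations. Step 3: Interpolate endpoints linearly; if unreached, use highest concentration. GI50 = concentration required for 50% inhibition of growth.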 Activity calls are given as the source filed them. Rule as the data show it: active = GI50 up to about 1.1 µM and inactive = higher.

What was measured:
Experiment in all cases: DTP human tumour cell line panel, 48 h
BT-549 = system: BT-549
CCRF-CEM = system: CCRF-CEM
COLO 205 = system: COLO 205
HCC 2998 = system: HCC 2998
HCT-116 = system: HCT-116
HOP-62 = system: HOP-62
HT-29 = system: HT-29
Hs-578T = system: Hs-578T
K562 = system: K562
KM12 = system: KM12
M14 = system: M14
MCF7 = system: MCF7
NCI-H23 = system: NCI-H23
NCI-H460 = system: NCI-H460
OVCAR-4 = system: OVCAR-4
SF-268 = system: SF-268
SK-MEL-28 = system: SK-MEL-28
TK-10 = system: TK-10
UACC-62 = system: UACC-62

Measured: GI50

CC(=O)Nc1c(C)cc(OCC(=O)O)cc1C
inactive: BT-549 > 100 µM | CCRF-CEM > 100 µM | COLO 205 > 100 µM | HCC 2998 > 100 µM | HCT-116 > 100 µM | HOP-62 > 100 µM | HT-29 > 100 µM | Hs-578T > 100 µM | K562 > 100 µM | KM12 > 100 µM | M14 > 100 µM | MCF7 > 100 µM | NCI-H23 > 100 µM | NCI-H460 > 100 µM | OVCAR-4 > 100 µM | SF-268 > 100 µM | SK-MEL-28 > 100 µM | TK-10 > 100 µM | UACC-62 > 100 µM

O=C(c1ccccc1)n1c(Cc2ccccc2)nc2cc(C34CC5CC(CC(C5)C3)C4)ccc21
inactive: BT-549 46.5 µM | CCRF-CEM 50.5 µM | COLO 205 27.7 µM | HCC 2998 77.3 µM | HCT-116 44.3 µM | HOP-62 56.4 µM | HT-29 43.6 µM | Hs-578T > 100 µM | K562 > 100 µM | KM12 69.7 µM | M14 43.4 µM | MCF7 24.4 µM | NCI-H23 27.4 µM | NCI-H460 52.7 µM | OVCAR-4 > 100 µM | SF-268 > 100 µM | SK-MEL-28 84.3 µM | TK-10 > 100 µM | UACC-62 48.6 µM

CC(C)C(=O)NCC[C@@H](CNC(=O)OC(C)(C)C)NC(=O)OC(C)(C)C
inactive: BT-549 > 100 µM | CCRF-CEM > 100 µM | COLO 205 > 100 µM | HCC 2998 > 100 µM | HCT-116 > 100 µM | HOP-62 > 100 µM | HT-29 > 100 µM | Hs-578T > 100 µM | K562 > 100 µM | KM12 > 100 µM | M14 > 100 µM | MCF7 > 100 µM | NCI-H23 > 100 µM | NCI-H460 > 100 µM | OVCAR-4 > 100 µM | SF-268 > 100 µM | SK-MEL-28 > 100 µM | TK-10 > 100 µM | UACC-62 > 100 µM

Cc1cc(Cl)nc(Nc2nc3ccccc3[nH]2)n1
inactive: BT-549 > 100 µM | CCRF-CEM > 100 µM | COLO 205 > 100 µM | HCC 2998 > 100 µM | HCT-116 > 100 µM | HOP-62 > 100 µM | HT-29 > 100 µM | Hs-578T 40.1 µM | K562 > 100 µM | M14 > 100 µM | MCF7 > 100 µM | NCI-H23 > 100 µM | NCI-H460 > 100 µM | OVCAR-4 > 100 µM | SF-268 > 100 µM | SK-MEL-28 > 100 µM | TK-10 > 100 µM | UACC-62 > 100 µM

O=c1c2cc(-c3ccccc3)sc2nc2n1N=C(c1ccc(Cl)cc1)CS2
inactive: BT-549 > 100 µM | CCRF-CEM > 100 µM | COLO 205 > 100 µM | HCC 2998 > 100 µM | HCT-116 > 100 µM | HOP-62 > 100 µM | HT-29 > 100 µM | Hs-578T > 100 µM | K562 > 100 µM | KM12 > 100 µM | MCF7 > 100 µM | NCI-H23 > 100 µM | NCI-H460 > 100 µM | OVCAR-4 > 100 µM | SF-268 > 100 µM | SK-MEL-28 > 100 µM | TK-10 > 100 µM | UACC-62 > 100 µM

COc1ccc(NC(=O)/C(CC2=Nc3ccc([N+](=O)[O-])cc3NC2O)=N\NC(=O)C[N+](C)(C)C)c(OC)c1 (stereo not drawn)
inactive: BT-549 > 100 µM | CCRF-CEM 40.3 µM | COLO 205 43 µM | HCC 2998 > 100 µM | HCT-116 30.4 µM | HOP-62 22.2 µM | HT-29 > 100 µM | Hs-578T > 100 µM | KM12 89.7 µM | M14 56.1 µM | MCF7 > 100 µM | NCI-H23 84.3 µM | NCI-H460 40.5 µM | OVCAR-4 80 µM | SF-268 > 100 µM | SK-MEL-28 97.9 µM | TK-10 > 100 µM | UACC-62 > 100 µM

O=S(=O)(Nc1ccccc1S(=O)(=O)c1ccccc1)c1ccccc1
inactive: BT-549 63.1 µM | CCRF-CEM 42.7 µM | COLO 205 38.1 µM | HCC 2998 44.6 µM | HCT-116 77.1 µM | HOP-62 > 100 µM | HT-29 48 µM | Hs-578T 51.9 µM | K562 61.5 µM | KM12 56.8 µM | M14 > 100 µM | MCF7 > 100 µM | NCI-H23 46.7 µM | OVCAR-4 51.3 µM | SF-268 91 µM | SK-MEL-28 > 100 µM | TK-10 > 100 µM | UACC-62 49 µM

COC(=O)[C@H](CCSC)NC(=O)N[C@H](C)c1ccccc1
inactive: BT-549 > 100 µM | CCRF-CEM > 100 µM | COLO 205 > 100 µM | HCC 2998 > 100 µM | HCT-116 > 100 µM | HOP-62 > 100 µM | HT-29 > 100 µM | Hs-578T > 100 µM | K562 > 100 µM | KM12 > 100 µM | M14 > 100 µM | MCF7 > 100 µM | NCI-H23 > 100 µM | NCI-H460 > 100 µM | OVCAR-4 > 100 µM | SF-268 > 100 µM | SK-MEL-28 > 100 µM | TK-10 > 100 µM | UACC-62 > 100 µM
